The values below come from patent publication US20250194601A1, “PYRIDAZINONE COMPOUND OR SALT THEREOF AND PEST CONTROL AGENT CONTAINING IT” (ISHIHARA SANGYO KAISHA, LTD., priority 2022, published 2025).

Usually mortality stands for the percentage killed. Low readings indicate a weak lethal effect, high ones a strong lethal effect.

Type in all cases: in vivo
For experiment [1], the system named is brown planthopper (Nilaparvata luqens). Briefly: Comparative Test Example 1: brown planthopper, rice seedling dip. Particulars: 5th day after release; for mortality at 50 ppm: Active ingredient concentration 50 ppm; for mortality at 200 ppm: Active ingredient concentration 200 ppm. Here is the method:
(§1) Rice seedlings were dipped in a chemical solution of a test compound at a concentration of 200 ppm or 50 ppm. After the chemical solution dried in air, the root was wrapped with wet adsorbent cotton, and the seedlings were put into a test tube. About 10 second to third instar nymphs of brown planthopper (Nilaparvata luqens)were released, the test tube was covered with a gauze, and the test tube was left in a constant temperature chamber with lighting at 25° C. On the 5th day after release, the number of dead nymphs was counted, and the mortality (%) was calculated by the following formula.
The test compounds are Compound No. 2-12 as the compound of the present invention and the following Comparative Compounds (A) and (B) as the comparative compounds.

For experiment [2], the system named is green peach aphid (Myzus persicae). Briefly: Comparative Test Example 2: green peach aphid, radish leaf dip. Conditions: foliar, 5th day after the application; for mortality at 50 ppm: Active ingredient concentration 50 ppm; for mortality at 200 ppm: Active ingredient concentration 200 ppm. An excerpt:
(§2) A Japanese radish leaf was inserted in a test tube in which water was put, and 5 adults of green peach aphid (Myzus persicae) were released on the leaf. On the next day, the adults were removed, and the number of nymphs parasitic on the leaf was counted as the number of tested nymphs, and then the leaf was dipped in a chemical solution of a test compound at a concentration of 200 ppm or 50 ppm. After the chemical solution dried in air, the leaf was left in a constant temperature chamber with lighting at 2500. On the 5th day after the application, the number of dead nymphs was counted, and the mortality (%) was calculated by the following formula. Nymphs that dropped from the leaf or nymphs that were moribund were counted as dead nymphs.
The test compounds were the same as in Comparative Test Example 1.

Experiment [3] has the same test system. Briefly: whole plant or invertebrate. Conditions: in Raphanus sativus, foliar, nymphs, 5th day after the application.
Text: Test on effect against green peach aphid (Myzus persicae)
as §2, with “aphid” for “aphid (Myzus persicae)”, “25° C.” for “2500.”
Mortality (%)=[(Number of dead nymphs)/(number of tested nymphs)]x100

Experiment [4] has as its system brown planthopper (Nilaparvata luqens). Briefly: whole plant or invertebrate. Conditions: in Oryza sativa, second to third instar nymphs, 5th day after release.
Text: as §1, with “Test on effect against brown planthopper (Nilaparvata luqens) Rice” for “Rice”, “were” for “(Nilaparvata luqens)were”
Mortality (%)=[(number of dead nymphs)/(number of released nymphs)]×100

The subject of experiment [5] is two-spotted spider mite (Tetranychus urticae). Briefly: Test Example 3: effects against two-spotted spider mite, kidney bean leaf dip. Particulars: foliar, adults, 3rd day after the application. As for the experimental part: Test on effects against two-spotted spider mite (Tetranychus urticae) In a chemical solution of a test compound at a concentration of 800 ppm, 200 ppm or 50 ppm, a leaf of kidney bean on which about 20 adults of two-spotted spider mite had been released, was dipped. After the chemical solution dried in air, the leaf was left in a constant temperature chamber with lighting at 25° C. On the 3rd day after the application, the number of dead adults was counted, and the mortality (%) was calculated by the following formula. Adults that dropped from the leaf or adults that were moribund were counted as dead adults.

On to `CCc1nn(-c2ccc(C(F)(F)F)cc2Cl)c(=O)c(-c2ccc(F)cc2)c1O` [Comparative compound (B)], for which, in experiment [1], the mortality at 50 ppm was 0% and the mortality at 200 ppm amounted to 0%. In experiment [2], the mortality at 50 ppm was 0% and the mortality at 200 ppm stood at 30%.

In the case of `Cc1ccn(-c2c(O)c(C(F)(F)F)nn(-c3c(C)cc(C(F)(F)F)cc3C)c2=O)n1` [2-516, 2-[2,6-dimethyl-4-(trifluoromethyl)phenyl]-5-hydroxy-4-(3-methyl-1 H-pyrazol-1-yl)-6-(trifluoromethyl)pyridazin-3(2H)-one], the results for the mortality at 200 ppm in experiment [3], in experiment [4] and in experiment [5] were at least 90%, at least 90% and at least 80%, respectively.

`CCc1nn(-c2c(C)cc(C(F)(F)F)cc2C)c(=O)c(-n2cnc([N+](=O)[O-])n2)c1O` [6-65, 2-[2,6-dimethyl-4-(trifluoromethyl)phenyl]-6-ethyl-5-hydroxy-4-(3-nitro-1 H-1,2,4-triazol-1-yl)pyridazin-3(2H)-one]: the mortality at 200 ppm in experiment [3] and in experiment [4] was at least 90% throughout.

On to `COCc1nn(-c2c(C)cc(C(F)(F)F)cc2C)c(=O)c(-n2ccc(Cl)n2)c1O` [2-444, 4-(3-chloro-1 H-pyrazol-1-yl)-2-[2,6-dimethyl-4-(trifluoromethyl)phenyl]-5-hydroxy-6-(methoxymethyl)pyridazin-3(2H)-one], for which the mortality at 200 ppm in experiment [3] and in experiment [4] was at least 90% each time.

For `CCc1nn(-c2c(C)cc(S(=O)(=O)C(F)(F)F)cc2C)c(=O)c(-n2ccc(Cl)n2)c1O` [2-191, 4-(3-chloro-1 H-pyrazol-1-yl)-2-{2,6-dimethyl-4-[(trifluoromethyl)sulfonyl]phenyl}-6-ethyl-5-hydroxypyridazin-3(2H)-one], the mortality at 200 ppm in experiment [3] and in experiment [4] was at least 90% throughout.

Regarding `CCc1nn(-c2ccc(C(F)(F)F)cc2Cl)c(=O)c(-n2ccc(C(F)(F)F)n2)c1O` [2-12], the mortality at 50 ppm in experiment [1] and in experiment [2] was 100% in each case. Also, the mortality at 200 ppm in experiment [1] is 100%; in experiment [3] it was at least 90%; in experiment [4], at least 90%; in experiment [2], 100%. Further, the mortality at 800 ppm in experiment [5] was at least 80%.

With `CCc1nn(C)c(=O)c(-n2ccc(C(F)(F)F)n2)c1O` [Comparative compound (A)], in experiment [1], the mortality at 50 ppm turned out to be 0% and the mortality at 200 ppm is 0%. In experiment [2], this compound showed a mortality at 50 ppm of 0% and a mortality at 200 ppm of 20%.

Turning to `CCc1nn(-c2ncc(C(F)(F)F)cc2Cl)c(=O)c(-n2ccc(C(F)(F)F)n2)c1O` [1-57, 2-[3-chloro-5-(trifluoromethyl)pyridin-2-yl]-6-ethyl-5-hydroxy-4-[3-(trifluoromethyl)-1 H-pyrazol-1-yl]pyridazin-3(2H)-one], the mortality at 200 ppm in experiment [3] and in experiment [4] was at least 90% each time.

Take `CCc1ncn(-c2c(O)c(C(C)C)nn(-c3c(C)cc(C(F)(F)F)cc3C)c2=O)n1` [6-134, 2-[2,6-dimethyl-4-(trifluoromethyl)phenyl]-4-(3-ethyl-1 H-1,2,4-triazol-1-yl)-5-hydroxy-6-isopropylpyridazin-3(2H)-one]: the mortality at 200 ppm was at least 90% in experiment [3], at least 90% in experiment [4] and at least 80% in experiment [5].

On to `CCc1nn(-c2c(Cl)cc(C(F)(F)F)cc2Cl)c(=O)c(-n2ccc(C(F)(F)F)n2)c1O` [2-97, 2-[2,6-dichloro-4-(trifluoromethyl)phenyl]-6-ethyl-5-hydroxy-4-[3-(trifluoromethyl)-1 H-pyrazol-1-yl]pyridazin-3(2H)-one], for which the mortality at 200 ppm in experiment [3] and in experiment [4] was at least 90% in each case. Also, the mortality at 800 ppm in experiment [5] was at least 80%.

Regarding `CCc1nn(-c2c(C)cc(C#N)cc2C)c(=O)c(-n2cnc(Cl)n2)c1O` [6-136, 4-[5-(3-chloro-1 H-1,2,4-triazol-1-yl)-3-ethyl-4-hydroxy-6-oxopyridazin-1(6H)-yl]-3,5-dimethylbenzonitrile], the mortality at 200 ppm in experiment [3] and in experiment [4] was at least 90% in each case.
